Test system: LNCaP cells expressing ARR2PB-FireflyLuc and CMV-RenillaLuc
Assay: LNCaP ARR2PB-FireflyLuc reporter assay, antagonist mode;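 note: IC50 bins in nM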
Assay type: cell-based
Details: Homo sapiens, LNCaP, 48 h, +0.5 nM DHT, 48 h at 37° C., read-out: LNCap Antagonist Archive: IC50
Description: LNCaP cells expressing ARR2PB-FireflyLuc and CMV-RenillaLuc were treated with indicated concentrations of test compounds, enzalutamide (negative control), or DHT (positive control)+/−0.5 nM DHT for 48 h at 37° C. Fluorescent signals were read with the ImageXpress Micro Confocal System. Remaining activity (antagonist mode) was calculated as % Remaining Activity=100×[(ReadSample−LCave)/(HCave−LCave)] where HC is cells treated with 0.5 nM DHT only and LC is cells treated with 10 uM enzalutamide+0.5 nM DHT. Activation (agonist mode) was calculated as % Activation=100×[(ReadSample−LCave)/(HCave−LCave)] where HO is cells treated with 1 uM DHT and LC is cells treated with DMSO. Dose response curves and IC50 values were calculated using non-linear regression analysis in XLfit.
The designation “A” indicates an IC50 value of >10 μM, “B” indicates an IC50 value between 1 μM and 10 μM; “C” indicates an IC50 value between 100 nM and 1 μM; and “D” indicates an IC50 value of less than 100 nM.

SMILES	IC50 [nM]
Cn1c(C(=O)NC2CCC2)cc2ccnc(Cl)c21 [Example 143, 7-chloro-N-cyclobutyl-1-methylpyrrolo[2,3-c]pyridine-2-carboxamide]	100 to 1000
CC(C)N(Cc1ccccn1)C(=O)c1cc2ccc(F)cc2[nH]1 [Example 7, 6-fluoro-N-isopropyl-N-(pyridin-2-ylmethyl)-1H-indole-2-carboxamide]	> 10000
COCCN(C(=O)c1cc2cccc(Cl)c2[nH]1)c1ccc(C#N)cc1 [Example 55, 7-chloro-N-(4-cyanophenyl)-N-(2-methoxyethyl)-1H-indole-2-carboxamide]	100 to 1000
Cn1c(C(=O)NC23CC(C2)C3)cc2ccc(F)cc21 [Example 157, N-(bicyclo[1.1.1]pentan-1-yl)-6-fluoro-1-methyl-1H-indole-2-carboxamide]	1000 to 10000
Cn1c(C(=O)NC2CC3(CCC3)C2)cc2ccnc(Cl)c21 [Example 150, 7-chloro-1-methyl-N-{spiro[3.3]heptan-2-yl}pyrrolo[2,3-c]pyridine-2-carboxamide]	1000 to 10000
O=C(NC12CC(O)(C1)C2)c1cc2cccc(Cl)c2[nH]1 [Example 115, 7-chloro-N-[3-hydroxybicyclo[1.1.1]pentan-1-yl]-1H-indole-2-carboxamide]	> 10000
N#Cc1cccc2cc(C(=O)N(c3ccc(F)cc3)C3CCOC3)[nH]c12 (stereo not shown) [Example 84, 7-cyano-N-(4-fluorophenyl)-N-(oxolan-3-yl)-1H-indole-2-carboxamide]	100 to 1000
Cc1nccc2cc(C(=O)N(C)C34CC(F)(C3)C4)n(C)c12 [Example 132, N-{3-fluorobicyclo[1.1.1]pentan-1-yl}-N,1,7-trimethylpyrrolo[2,3-c]pyridine-2-carboxamide]	1000 to 10000
CN(C(=O)c1cc2ccc(F)cc2[nH]1)C1CC(F)(F)C1 [Example 92, N-(3,3-difluorocyclobutyl)-6-fluoro-N-methyl-1H-indole-2-carboxamide]	100 to 1000
COCCn1c(C(=O)NC23CC(F)(C2)C3)cc2ccnc(Cl)c21 [Example 139, 7-chloro-N-{3-fluorobicyclo[1.1.1]pentan-1-yl}-1-(2-methoxyethyl)pyrrolo[2,3-c]pyridine-2-carboxamide]	1000 to 10000
N#Cc1ccc(N(CC2CC2)C(=O)c2cc3cccc(Cl)c3[nH]2)cc1 [Example 56, 7-chloro-N-(4-cyanophenyl)-N-(cyclopropylmethyl)-1H-indole-2-carboxamide]	100 to 1000
COc1nccc2cc(C(=O)N(C)C34CC(C3)C4)[nH]c12 [Example 96, N-[bicyclo[1.1.1]pentan-1-yl]-7-methoxy-N-methyl-1H-pyrrolo[2,3-c]pyridine-2-carboxamide]	1000 to 10000
CC(C)N1CCC(N(C)C(=O)c2cc3cccc(Cl)c3[nH]2)C1 (stereo not shown) [Example 41, 7-chloro-N-(1-isopropylpyrrolidin-3-yl)-N-methyl-1H-indole-2-carboxamide]	> 10000
CN(C)c1nccc2cc(C(=O)NC34CC(F)(C3)C4)n(C)c12 [Example 125, 7-(dimethylamino)-N-{3-fluorobicyclo[1.1.1]pentan-1-yl}-1-methylpyrrolo[2,3-c]pyridine-2-carboxamide]	1000 to 10000
Cn1c(C(=O)NC23CC(F)(C2)C3)cc2ccnc(C#N)c21 [Example 131, 7-cyano-N-{3-fluorobicyclo[1.1.1]pentan-1-yl}-1-methylpyrrolo[2,3-c]pyridine-2-carboxamide]	100 to 1000
C[C@@H]1OCC[C@@H]1NC(=O)c1cc2cccc(Cl)c2[nH]1 [Example 62, 7-chloro-N-[(2S,3S)-2-methyloxolan-3-yl]-1H-indole-2-carboxamide]	1000 to 10000
CN(C(=O)c1cc2cccc(Cl)c2[nH]1)C12CC(C#N)(C1)C2 [Example 86, 7-chloro-N-[3-cyanobicyclo[1.1.1]pentan-1-yl]-N-methyl-1H-indole-2-carboxamide]	1000 to 10000

SMILES	IC50 [nM]
O=C(NC12CC(O)(C1)C2)c1cc2ccnc(Cl)c2[nH]1 [Example 116, 7-chloro-N-{3-hydroxybicyclo[1.1.1]pentan-1-yl}-1H-pyrrolo[2,3-c]pyridine-2-carboxamide]	> 10000
COCCN(C(=O)c1cc2ccc(F)cc2[nH]1)c1ccc(C#N)cc1 [Example 51, N-(4-cyanophenyl)-6-fluoro-N-(2-methoxyethyl)-1H-indole-2-carboxamide]	1000 to 10000
CCn1c(C(=O)N(C)C23CC(F)(C2)C3)cc2ccnc(Cl)c21 [Example 153, 7-chloro-1-ethyl-N-(3-fluorobicyclo[1.1.1]pentan-1-yl)-N-methyl-1H-pyrrolo[2,3-c]pyridine-2-carboxamide]	< 100
CN(C(=O)c1cc2cccc(C#N)c2[nH]1)C1CCCC1 [Example 20, 7-cyano-N-cyclopentyl-N-methyl-1H-indole-2-carboxamide]	1000 to 10000
CN(C(=O)c1cc2ccc(F)cc2o1)c1ccccc1 [Example 24, 6-fluoro-N-methyl-N-phenyl-1-benzofuran-2-carboxamide]	1000 to 10000
COCCN(C(=O)c1cc2ccc(F)cc2[nH]1)c1ccc(Cl)cn1 [Example 160]	1000 to 10000
CN(C(=O)c1cc2ccc(F)cc2[nH]1)c1cccc(C#N)c1 [Example 16, N-(3-cyanophenyl)-6-fluoro-N-methyl-1H-indole-2-carboxamide]	> 10000
CN(C(=O)c1cc2cccc(C#N)c2o1)c1ccc(F)cc1 [Example 34, 7-cyano-N-(4-fluorophenyl)-N-methyl-1-benzofuran-2-carboxamide]	> 10000
Cc1nccc2cc(C(=O)NC34CC(F)(C3)C4)n(C)c12 [Example 130, N-{3-fluorobicyclo[1.1.1]pentan-1-yl}-1,7-dimethylpyrrolo[2,3-c]pyridine-2-carboxamide]	1000 to 10000
Cn1c(C(=O)NC23CC(F)(C2)C3)cc2ccnc(Cl)c21 [Example 110, 7-chloro-N-[3-fluorobicyclo[1.1.1]pentan-1-yl]-1-methylpyrrolo[2,3-c]pyridine-2-carboxamide]	100 to 1000
CC(C)N(Cc1cccnc1)C(=O)c1cc2ccc(F)cc2[nH]1 [Example 9, 6-fluoro-N-isopropyl-N-(pyridin-3-ylmethyl)-1H-indole-2-carboxamide]	1000 to 10000
Cn1c(C(=O)NC2(C)CCC2)cc2ccnc(Cl)c21 [Example 147, 7-chloro-1-methyl-N-(1-methylcyclobutyl)pyrrolo[2,3-c]pyridine-2-carboxamide]	100 to 1000
COCCN(C(=O)c1cc2cccc(Cl)c2[nH]1)c1ccc(C#N)c(F)c1 [Example 78, 7-Chloro-N-(4-cyano-3-fluorophenyl)-N-(2-methoxyethyl)-1H-indole-2-carboxamide]	1000 to 10000
CC(C)N1CCC(N(C)C(=O)c2cc3cccc(Cl)c3[nH]2)CC1 [Example 45, 7-chloro-N-(1-isopropylpiperidin-4-yl)-N-methyl-1H-indole-2-carboxamide]	> 10000
CN(C(=O)c1cc2cccc(Cl)c2o1)c1ccc(F)cc1 [Example 35, 7-chloro-N-(4-fluorophenyl)-N-methyl-1-benzofuran-2-carboxamide]	1000 to 10000
COCCN(C(=O)c1cc2ccc(F)cc2[nH]1)c1cnn(C)c1 [Example 49, 6-fluoro-N-(2-methoxyethyl)-N-(1-methylpyrazol-4-yl)-1H-indole-2-carboxamide]	> 10000
O=C(NC12CC(C1)C2)c1cc2cccc(Cl)c2[nH]1 [Example 89, N-[bicyclo[1.1.1]pentan-1-yl]-7-chloro-1H-indole-2-carboxamide]	100 to 1000
